19 compounds from patent publication US8513462B2, “Pesticides and uses thereof” (Dow AgroSciences LLC, priority 2007, dated 2013) can be followed below.

This experiment deals with green peach aphid (Myzus persicae). Description: Insecticidal test for green peach aphid in foliar spray assay. The note with it: 72 h, foliar spray on cabbage, Corrected % Control (Abbott) after three days, read-out: Rating against green peach aphid on cabbage (foliar spray). Type of experiment: in vivo. How it is done:
Squash seedlings with fully expanded cotyledon leaves were trimmed to one cotyledon per plant and infested with cotton aphid (wingless adults and nymphs) 1 day prior to chemical application. Each plant was examined before chemical application to ensure uniform infestation (ca. 30-70 aphids per plant). Compounds (2 mg) were dissolved in 2 ml of acetone:methanol (1:1) solvent, forming stock solutions of 1000 ppm. The stock solutions were diluted 5× with 0.025% Tween 20 in H2O to obtain a solution at 200 ppm. A hand-held Devilbiss aspirator type sprayer was used to apply the spray solutions until runoff to both sides of the squash cotyledon leaves. Four plants (4 replications) were used for each compound. Reference plants (solvent check) were sprayed with the diluent only. Treated plants were held in a holding room for 3 days at approximately 23° C. and 40% RH before the number of live aphids on each plant was recorded. Insecticidal activity was measured by Corrected % Control using Abbott's correction formula and presented in Table 1-Activity: Corrected % Control=100*(X−Y)/X • where X=No. of live aphids on solvent check plants • Y=No. of live aphids on treated plants Results are shown in Table 7. Insecticidal Test for Green Peach Aphid (Myzus persicae) in Foliar Spray Assay Cabbage seedlings grown in 3-inch pots, with 2-3 small (3-5 cm) true leaves, were used as test substrate. The seedlings were infested with 20-50 green peach aphids (wingless adult and nymph) 1-2 days prior to chemical application. Four seedlings were used for each treatment. Compounds (2 mg) were dissolved in 2 ml of acetone:methanol (1:1) solvent, forming stock solutions of 1000 ppm. The stock solutions were diluted 5× with 0.025% Tween 20 in H2O to obtain a solution at 200 ppm. A hand-held Devilbiss aspirator sprayer was used for spraying a solution to both sides of cabbage leaves until runoff. Reference plants (solvent check) were sprayed with the diluent only. Treated plants were held in a holding room for three days at approximately 23° C. and 40% RH prior to grading. Evaluation was conducted by counting the number of live aphids per plant under a microscope. Insecticidal activity was measured by using Abbott's correction formula: Corrected % Control=100*(X−Y)/X • where X=No. of live aphids on solvent check plants • Y=No. of live aphids on treated plants
For the compound `Cc1ccsc1-c1nc(N=S(C)(=O)C(C)c2ccc(C(F)(F)F)nc2)sc1C` (stereo not shown) [Compound 36], the pest or weed control at 200 ppm lay in the range of 80 to 100%.

Regarding `CC(c1ccc(C(F)(F)F)nc1)S(C)(=O)=Nc1nc(-c2csc3ccccc23)cs1` (stereo not shown) [Compound 40], the pest or weed control at 200 ppm lay within 80 to 100%. Turning to `CC(c1ccc(C(F)(F)F)nc1)S(C)(=O)=Nc1nc(-c2cc(-c3ccc(Cl)cc3)no2)cs1` (stereo not shown) [Compound 42], the pest or weed control at 200 ppm lay in the range of 80 to 100%. The value for `CC(c1ccc(C(F)(F)F)nc1)S(C)(=O)=Nc1nc(-c2ccc3c(c2)OCO3)cs1` (stereo not shown) [Compound 47] was 80 to 100%. The figure for `CC(c1ccc(C(F)(F)F)nc1)S(C)(=O)=Nc1nc(-c2ccc([N+](=O)[O-])cc2)cs1` (stereo not shown) [Compound 49] is 80 to 100%. As to `Cc1cc(-c2csc(N=S(C)(=O)C(C)c3ccc(C(F)(F)F)nc3)n2)ccc1Cl` (stereo not shown) [Compound 50], the pest or weed control at 200 ppm was in the range of 80 to 100%. The value for `COc1ccc(-c2csc(N=S(C)(=O)C(C)c3ccc(C(F)(F)F)nc3)n2)c(OC)c1` (stereo not shown) [Compound 53] was 80 to 100%; that for `COc1ccc(-c2csc(N=S(C)(=O)Cc3ccc(Cl)nc3)n2)cc1` (stereo not shown) [Compound 57, 5-{[methyl[4-(4-methoxyphenyl)-1,3-thiazol-2-yl]sulfonimidoyl]methyl}-2-chloropyridine] was < 80%. The value for `CCCCC(c1ccc(C(F)(F)F)nc1)S(C)(=O)=Nc1nc(-c2ccc(OC)cc2)cs1` (stereo not shown) [Compound 60, 5-{1-[methyl(4-(4-methoxyphenyl)-1,3-thiazol-2-yl)sulfonimidoyl]pentyl}-2-(trifluoromethyl)pyridine] was < 80%; that for `CC(c1ccc(C(F)(F)F)nc1)S(C)(=O)=Nc1ncc(-c2ccccc2)s1` (stereo not shown) [Compound 62, 5-{1-[methyl(5-phenyl-1,3-thiazol-2-yl)sulfonimidoyl]ethyl}-2-(trifluoromethyl)pyridine] was 80 to 100%. The value for `Cc1cnc(N=S(C)(=O)C(C)c2ccc(C(F)(F)F)nc2)s1` (stereo not shown) [Compound 63, 5-{1-[methyl(5-methyl-1,3-thiazol-2-yl)sulfonimidoyl]ethyl}-2-(trifluoromethyl)pyridine] was 80 to 100%; that for `CSCc1cnc(N=S(C)(=O)C(C)c2ccc(C(F)(F)F)nc2)s1` (stereo not shown) [Compound 64, 5-[1-(methyl{5-[(methylsulfanyl)methyl]-1,3-thiazol-2-yl}sulfonimidoyl)ethyl]-2-(trifluoromethyl)pyridine] was 80 to 100%; that for `Cc1sc(N=S(C)(=O)C(C)c2ccc(C(F)(F)F)nc2)nc1-c1ccccc1` (stereo not shown) [Compound 66, 5-{1-[methyl(5-methyl-4-phenyl-1,3-thiazol-2-yl)sulfonimidoyl]ethyl}-2-(trifluoromethyl)pyridine] was 80 to 100%. In the case of `Cc1nc(N=S(C)(=O)C(C)c2ccc(C(F)(F)F)nc2)sc1C` (stereo not shown) [Compound 67, 5-{1-[(4,5-dimethyl-1,3-thiazol-2-yl)(methyl)sulfonimidoyl]ethyl}-2-(trifluoromethyl)pyridine], the pest or weed control at 200 ppm lay in the range of 80 to 100%. The value for `Cc1sc(N=S(C)(=O)C(C)c2ccc(C(F)(F)F)nc2)nc1-c1ccc(Br)cc1` (stereo not shown) [Compound 68, 5-{1-[[4-(4-bromophenyl)-5-methyl-1,3-thiazol-2-yl](methyl)sulfonimidoyl]ethyl}-2-(trifluoromethyl)pyridine] was 80 to 100%; that for `CCc1coc(N=S(C)(=O)C(C)c2ccc(C(F)(F)F)nc2)n1` (stereo not shown) [Compound 70, 5-{1-[methyl(4-ethyl-1,3-oxazol-2-yl)sulfonimidoyl]ethyl}-2-(trifluoromethyl)pyridine] was 80 to 100%. On to `Cc1coc(N=S(C)(=O)C(C)c2ccc(C(F)(F)F)nc2)n1` (stereo not shown) [Compound 71], for which the pest or weed control at 200 ppm was 80 to 100%. The value for `Cc1nc(N=S(C)(=O)C(C)c2ccc(C(F)(F)F)nc2)oc1C` (stereo not shown) [Compound 72] was < 80%; that for `Cc1oc(N=S(C)(=O)C(C)c2ccc(C(F)(F)F)nc2)nc1-c1ccc(Br)cc1` (stereo not shown) [Compound 73] was 80 to 100%.
